Assay results as given in PubChem BioAssay (NCI).
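How tested: cells in 96-well plates exposed to compound for 48 hours at five concentrations. Definition used: TGI = concentration required for complete inhibition of growth.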

Legend:
Assay in all cases: NCI anticancer screen, dose series, 48 h
[1] = system: 786-0 renal
[2] = system: A498 renal
[3] = system: A549 NSCLC
[4] = system: ACHN renal
[5] = system: BT-549 breast
[6] = system: CAKI-1 renal
[7] = system: CCRF-CEM leukemia
[8] = system: COLO 205 colon
[9] = system: DU-145 prostate
[10] = system: EKVX NSCLC
[11] = system: HCC-2998 colon
[12] = system: HCT-116 colon
[13] = system: HCT-15 colon
[14] = system: HL-60(TB) leukemia
[15] = system: HOP-62 NSCLC
[16] = system: HOP-92 NSCLC
[17] = system: HS 578T breast
[18] = system: HT29 colon
[19] = system: IGROV1 ovarian
[20] = system: KM12 colon
[21] = system: LOX IMVI melanoma
[22] = system: M14 melanoma
[23] = system: MCF7 breast
[24] = system: MDA-MB-231 breast
[25] = system: MDA-MB-435
[26] = system: MDA-N
[27] = system: NCI-H226 lung
[28] = system: NCI-H23 lung
[29] = system: NCI/ADR-RES ovarian
[30] = system: OVCAR-3 ovarian
[31] = system: OVCAR-4 ovarian
[32] = system: OVCAR-5 ovarian
[33] = system: OVCAR-8 ovarian
[34] = system: PC-3 prostate
[35] = system: RPMI-8226 leukemia
[36] = system: SF-268 CNS
[37] = system: SF-295 CNS
[38] = system: SF-539 CNS
[39] = system: SK-MEL-2 melanoma
[40] = system: SK-MEL-28 melanoma
[41] = system: SK-MEL-5 melanoma
[42] = system: SK-OV-3 ovarian
[43] = system: SN12C renal
[44] = system: SNB-19 CNS
[45] = system: SW-620 colon
[46] = system: T-47D breast
[47] = system: TK-10 renal
[48] = system: U251 CNS
[49] = system: UACC-257 melanoma
[50] = system: UACC-62 melanoma
[51] = system: UO-31 renal
[52] = system: K-562 leukemia
[53] = system: MALME-3M melanoma
[54] = system: MOLT-4 leukemia
[55] = system: NCI-H460 lung
[56] = system: RXF 393 renal
[57] = system: SNB-75 CNS
[58] = system: SR leukemia

Question: `CNc1ncnc2c1cnn2Cc1cn(COCC(O)CO)nn1` (stereo not drawn) was tested. Which TGI [1] did it give?
Answer: Its TGI is greater than 100 µM.

Question: What about the TGI [2] of the same compound?
Answer: The TGI was greater than 100 µM.

Question: What about the TGI [3] of the same compound?
Answer: The TGI was greater than 100 µM.

Question: And the TGI [4]?
Answer: The TGI was greater than 100 µM.

Question: What about the TGI [5] of the same compound?
Answer: Its TGI is greater than 100 µM.

Question: What about the TGI [6] of the same compound?
Answer: Its TGI is greater than 100 µM.

Question: What about the TGI [7] of the same compound?
Answer: Its TGI is greater than 100 µM.

Question: And the TGI [8]?
Answer: Its TGI is greater than 100 µM.

Question: And the TGI [9]?
Answer: The TGI was greater than 100 µM.

Question: And the TGI [10]?
Answer: Its TGI is greater than 100 µM.

Question: And the TGI [11]?
Answer: Its TGI is greater than 100 µM.

Question: And the TGI [12]?
Answer: The TGI was greater than 100 µM.

Question: What about the TGI [13] of the same compound?
Answer: Its TGI is greater than 100 µM.

Question: And the TGI [14]?
Answer: The TGI was greater than 100 µM.

Question: And the TGI [15]?
Answer: The TGI was greater than 100 µM.

Question: And the TGI [16]?
Answer: Its TGI is greater than 100 µM.

Question: And the TGI [17]?
Answer: The TGI was 20.3 µM.

Question: And the TGI [18]?
Answer: Its TGI is greater than 100 µM.

Question: What about the TGI [19] of the same compound?
Answer: Its TGI is greater than 100 µM.

Question: What about the TGI [20] of the same compound?
Answer: The TGI was greater than 100 µM.

Question: What about the TGI [21] of the same compound?
Answer: The TGI was greater than 100 µM.

Question: What about the TGI [22] of the same compound?
Answer: Its TGI is greater than 100 µM.

Question: And the TGI [23]?
Answer: The TGI was greater than 100 µM.

Question: What about the TGI [24] of the same compound?
Answer: The TGI was greater than 100 µM.

Question: What about the TGI [25] of the same compound?
Answer: The TGI was greater than 100 µM.

Question: And the TGI [26]?
Answer: The TGI was greater than 100 µM.

Question: And the TGI [27]?
Answer: Its TGI is greater than 100 µM.

Question: And the TGI [28]?
Answer: The TGI was greater than 100 µM.

Question: What about the TGI [29] of the same compound?
Answer: The TGI was greater than 100 µM.

Question: And the TGI [30]?
Answer: The TGI was greater than 100 µM.

Question: And the TGI [31]?
Answer: The TGI was greater than 100 µM.

Question: And the TGI [32]?
Answer: The TGI was greater than 100 µM.

Question: What about the TGI [33] of the same compound?
Answer: Its TGI is greater than 100 µM.

Question: What about the TGI [34] of the same compound?
Answer: The TGI was greater than 100 µM.

Question: And the TGI [35]?
Answer: Its TGI is greater than 100 µM.

Question: And the TGI [36]?
Answer: The TGI was 22 µM.

Question: And the TGI [37]?
Answer: The TGI was greater than 100 µM.

Question: What about the TGI [38] of the same compound?
Answer: The TGI was greater than 100 µM.

Question: And the TGI [39]?
Answer: Its TGI is greater than 100 µM.

Question: What about the TGI [40] of the same compound?
Answer: Its TGI is greater than 100 µM.

Question: And the TGI [41]?
Answer: Its TGI is greater than 100 µM.

Question: What about the TGI [42] of the same compound?
Answer: The TGI was greater than 100 µM.

Question: And the TGI [43]?
Answer: The TGI was greater than 100 µM.

Question: What about the TGI [44] of the same compound?
Answer: The TGI was greater than 100 µM.

Question: And the TGI [45]?
Answer: The TGI was greater than 100 µM.

Question: What about the TGI [46] of the same compound?
Answer: Its TGI is greater than 100 µM.

Question: And the TGI [47]?
Answer: The TGI was greater than 100 µM.

Question: What about the TGI [48] of the same compound?
Answer: The TGI was greater than 100 µM.

Question: What about the TGI [49] of the same compound?
Answer: Its TGI is greater than 100 µM.

Question: What about the TGI [50] of the same compound?
Answer: Its TGI is greater than 100 µM.

Question: And the TGI [51]?
Answer: Its TGI is greater than 100 µM.

Question: Which results are given for `COC(=O)c1c(O)ccc2c1c1c(n2Cc2ccccc2)C(=O)c2ccccc2C1`?
Answer: TGI [1]: > 100 µM; TGI [2]: > 100 µM; TGI [3]: > 100 µM; TGI [5]: > 100 µM; TGI [6]: 87.2 µM; TGI [7]: 65.8 µM; TGI [8]: 28.9 µM; TGI [9]: > 100 µM; TGI [12]: > 100 µM; TGI [13]: > 100 µM; TGI [14]: > 100 µM; TGI [15]: > 100 µM; TGI [17]: > 100 µM; TGI [18]: 37.4 µM; TGI [19]: > 100 µM; TGI [52]: 46 µM; TGI [20]: > 100 µM; TGI [21]: 69.5 µM; TGI [22]: > 100 µM; TGI [53]: > 100 µM; TGI [23]: > 100 µM; TGI [24]: > 100 µM; TGI [25]: > 100 µM; TGI [26]: > 100 µM; TGI [54]: 37.6 µM; TGI [27]: > 100 µM; TGI [28]: > 100 µM; TGI [55]: > 100 µM; TGI [29]: 89.9 µM; TGI [30]: > 100 µM; TGI [31]: 70.4 µM; TGI [33]: > 100 µM; TGI [34]: 60.5 µM; TGI [35]: 32.6 µM; TGI [56]: 60 µM; TGI [36]: > 100 µM; TGI [37]: > 100 µM; TGI [38]: > 100 µM; TGI [39]: > 100 µM; TGI [40]: > 100 µM; TGI [41]: > 100 µM; TGI [42]: > 100 µM; TGI [43]: 45.4 µM; TGI [44]: > 100 µM; TGI [57]: 70.2 µM; TGI [58]: 37.5 µM; TGI [45]: > 100 µM; TGI [47]: > 100 µM; TGI [48]: > 100 µM; TGI [49]: > 100 µM; TGI [50]: > 100 µM; TGI [51]: > 100 µM
